The results in this text go back to patent US20020137141A1, “Short peptides from the 'A-region' of protein kinases which selectively modulate protein kinase activity” (Children's Medical Center Corporation, priority 2000, published 2002).

Where no end group is shown, it is not given here.

One assay deals with p38-MAP. Briefly: Western blot, phosphorylation of downstream substrate p38-MAP. Type of assay: cell-based, rat. The following applies: dose dependent, compared with insulin, FIG. 10. The method, then: (§1) All experiments were carried out with H4 cells (Rat hepatoma cell line).Cells were pre-incubated with the compound K094A107 comprising an IRK-derived peptide (SEQ ID NO: 102)(10mM) or the corresponding controls for 3 hours ( one control was control -no treatment vehicle only, the second control was an irrelevant peptide derived from a non-A-region of a kinase), and with human recombinant insulin (100 nM), for 5 minutes. The cells were then lysed and cell lysates were subjected to Western Blot analysis followed by detection with ECL.
(§2) The membrane was incubated overnight with a primary polyclonal Anti-PhosphoPKB (phospho-serine 473 PKB)Ab, or with an antibody for IRK and then, after 3 washes with TBST, with secondary HRP antibody was added for 1 hour. In the second gel the membrane was incubated overnight with a primary monoclonal PhosphoTyrosine Kinase (PY99) Ab that labels phosphorylated tyrosine, and then after 3 washes with TBST, a secondary antibody was added for 1 hour.
(§3) A similar experiment was conducted with the difference being that the substrates tested were the substrates of the kinase associated signal transduction that are more downstream in the pathway: Erk1, and p38-MAP.

A further assay has as its system Erk1. Briefly: Western blot, phosphorylation of downstream substrate Erk1. Type of assay: cell-based, rat. Conditions: dose dependent, compared with insulin, FIG. 10. As to the method: as §1, §2, §3
A further assay has as its system adipose cells. Briefly: Glucose uptake (3H-deoxy glucose) in fresh rat adipocytes. Type of assay: cell-based. Conditions: for glucose uptake: 10 μM compound, fresh adipocytes, without insulin, vs control (vehicle). As to the method: To 3 ml of KRBH buffer with 10 mg collagenase, 3g epididymal fat pad (from 2-3 male rats lightly ether anesthesised and then decapitated) was introduced. The fat was cut up with scissors. The pieces of fat were swirled and shaken in the collagenase solution in a 37° C. water bath, set at 100-150 repetitions/minute, for approximately 1 hour with swirling every 15 minutes while digesting and every 5 minutes towards the end. About 6 ml of buffer was then added to the vial. The content of the vial was gently squeezed through a 250 μ nylon mesh into a 50 ml plastic tube. The residual fat tissue was washed (the total volume for each wash was 15 ml): the tube was centrifuged whereby the adipose cells floated at the top of the liquid. The buffer was removed using a syringe with polyethylene capillary. Buffer was added to get 15 ml and clumps of adipose cells were broken up by gently mixing up and down. This procedure was repeated for a total of 4 centrifugations: 3 centrifugations at 1000 rpm with the last centrifugation at 2000 rpm. At this point, the buffer was removed. Fresh buffer was added to the cell suspension to form a cytocrit of 5-10%. The cells were rolled at 10 rpm at 37° C. for 1 hour.
50 μl 0.1% BSA in PBS was placed with compounds comprising IRK-derived peptides (final concentrations: 0.1-50 μM) or the peptide-vehicle in each 2 ml plastic tube in duplicates. 950 μl aliquots of the cell suspension were added to the tubes. After incubation for 1 hour at 37° C. in a roller (10 rpm), 200 ul of insulin was added to certain tubes to get final concentrations of 2.5-1000 uU/ml and than 200 μl of KRBH buffer containing 3H—Deoxy Glucose (approx. 1200 dpm/μl) was added to each tube. After 30 minutes incubation with the 3H-DOG and insulin at 37° C., 200 μl aliquots were transferred to microcentrifuge tubes containing 200 μl Dinonyl phthalate in duplicates. Cells were rapidly separated from the aqueous buffer by centrifugation at 10,000 g for 60 sec. The cells were isolated in the top layer of the dinonyl phthalate phase. The upper part of the tube (which contains the cells) was cut and transferred to scintillation tube. 4 ml of scintillation liquid was added.
Cell associated radioactivity was counted in a liquid scintillation beta counter.
Glucose-uptake was measured in fresh adipocytes, incubated with or without insulin (10 μ/ml) as described above, in the absence (vehicle) or the presence of 10 μM of a compound K094A107 (“107”) SEQ ID NO: 102; or K094A205 (“205”) (SEQ ID NO: 123), which was kept in a reducing environment (5 to 25 μM DTT) As a comparison the glucose uptake with insulin alone was determined.

Another assay concerns IRK substrates. Briefly: Western blot of FIG. 10 as worded in the figure legend. It is filed as cell-based, rat. Conditions: FIG. 10 legend. As to the method:
as §1, §3

Another assay has as its system PKB. Briefly: Western blot, phosphorylation of PKB in H4 cells. Type of assay: cell-based, rat. More on the design: dose or concentration left out as unconfirmed. The following applies: pre-incubated 3 hours with compound, phospho-serine 473, FIG. 9. The method, then:
as §1, §2
(A western blot detects proteins with antibodies after separation by electrophoresis.)

The subject of another assay is IRK. Put plainly: Western blot, phosphorylation of IRK in H4 cells. It is filed as cell-based, rat. More on the design: dose or concentration left out as unconfirmed. Conditions: pre-incubated 3 hours with compound, FIG. 9. As to the method:
as §1, §2

The subject of the next assay is male Sabra rats. Briefly: Blood glucose in streptozotocin-induced diabetic rats. Type of assay: in vivo, rat. The following applies: 10 mg/animal I.P., insulin 0.125 units/animal one hour later. The method, then:
Diabetes was induced in male Sabra rats (150-200 gr) by I.P. injection of streptozotocin (Sigma, S0130) 60 mg/Kg dissolved in ph 4.5 saline (Biochemical and biophysical research comunications 197(3): 1549-1555 (1993)), which is known to destroy insulin-secreting pancreatic cells. After 2-7 days the rats were all diabetic, as determined by blood glucose level above 200 mg/dl which was measured with glucometer.
12 rats were divided into 3 groups, with homogenic blood glucose level, each consisting of 4 animals
Group I was administered with K094A107 (SEQ ID NO: 102) 10 mg/animal (I.P.) followed by administration of insulin 0.125 units/animal (low concentration of insulin that nearly doesn't give any significant decrease in blood glucose level) one hour later.
Group II was administered with K094A205 (A-region in SEQ ID NO: 123) 10 mg/animal (I.P.) followed by insulin 0.125 units/animal one hour later.
Group III served as control and was administered I.P. with vehicle (NAC/DMSO-DIDV) followed by insulin 0.125 units/animal one hour later.

In the next assay the test system is neural crest cells. Briefly: Emigration of neural crest cells from explanted neural primordia. Type of assay: cell-based, quail. The text has this:
The procedure for explants of neural primordia is described in greater detail in Sela-Donefeld and Kalcheim (Development, 125(21): 4749-4762 (1999)), the teaching of which was incorporated herein by reference.
The trunk region of 16 somite-old quail embryos was separately sectioned at the level of the segmental plate plus the last 2 epithelial somite pairs. Neural primordia consisting of the neural tube and premigratory neural crest cells were isolated from adjacent tissues with 25% pancreatin in PBS, transferred to PBS supplemented with 5% newborn calf serum to stop enzymatic activity and washed in serum-free culture medium prior to explanation. The neural primordia were then explanted onto multi-well chamber slides that were pre-coated with fibronectin (50 μg/ml) for 1 hour. The neural primordia were cultured in 50 μl of either serum-free CHO—S-SFMII medium (GibcoBRL, USA) or condition medium of noggin producing-CHO cells, in the absence or presence of the tested compound, in a final concentration of 5 μM and incubated in a humid chamber for 24 hours. At the end of the incubation, the primordia were gently washed with PBS and fixed with Bouin's fluid, washed 3 times with PBS, dried and covered.

For “K094A107: compound comprising an IRK A-region derived peptide, N-myristylated and C-amidated (GGFTCHHVVRL-NH2; not fully specified (N-terminus))”, the “phosphorylation of p38-MAP” value in the assay with p38-MAP was “increase the phosphorylation of ERK1 and p38-MAP in a dose dependent manner”. For the same molecule, in the assay with Erk1, the “phosphorylation of ERK1” value is “increase the phosphorylation of ERK1 and p38-MAP in a dose dependent manner”. Besides, the “glucose uptake in combination with insulin” value with adipose cells (10 μM compound in the presence of 10 μU/ml insulin) was “synergistic”. Further, the glucose uptake result in the assay with adipose cells is given as “increase glucose uptake levels beyond the level of control glucose uptake”. Moreover, the “glucose uptake, dose dependence” value in the assay on adipose cells (different concentrations of the compound (FIG. 6B)) was “induce glucose uptake in a dose-dependent manner”. The “phosphorylation of IRK substrates” value in the assay with IRK substrates is reported as “decrease of phosphorylation of IRK substrates, in a dose dependent manner”. The “phosphorylation of PKB” value with PKB was “able to increase phosphorylation”. For the same molecule, in the assay with IRK, the “phosphorylation of IRK” value is recorded as “able to increase phosphorylation”.

Consider “K094A205: compound comprising IRK A-region derived sequence, kept in a reducing environment (GGFTCHHVVRL; IRK)”, for which the “time at which effect of a single administration on blood glucose was still notable” value with male Sabra rats is not below 24 h. In addition, the glucose blood levels result in the assay with male Sabra rats (measured for 24 hours, vs vehicle plus insulin) is recorded as “marked reduction”. Besides, in the assay with adipose cells, the glucose uptake result is listed as “increase glucose uptake levels beyond the level of control glucose uptake”.

Take “K098A100: compound comprising ALK-3-derived A-region peptide (GLMRHENILGF; Alk3)”: in the assay with neural crest cells (5 μM compound, 24 hours, condition medium of noggin producing-CHO cells), the “neural crest migration in the presence of noggin” value is “overcomes this inhibition and induces neural crest migration”. Moreover, the “number of migrating neural crest cells” value with neural crest cells (5 μM compound, 24 hours, serum-free medium, absence of noggin) is “the number of migrating cells is higher”.

B1: Noggin: specific inhibitor of BMP-4; condition medium of noggin producing-CHO cells (protein, UniProt Q13253 28-232, looked up)
Noggin: QHYLHIRPAPSDNLPLVDLIEHPDPIFDPKEKDLNETLLRSLLGGHYDPGFMATSPPEDRPGGGGGAAGGAEDLAELDQLLRQRPSGAMPSEIKGLEFSEGLAQGKKQRLSKKLRRKLQMWLWSQTFCPVLYAWNDLGSRFWPRYVKVGSCFSKRSCSVPEGMVCKPSKSVHLTVLRWRCQRRGGQRCGWIPIQYPIISECKCSC
modifications: CHO conditioned medium
notes: condition medium of noggin producing-CHO cells
Turning to B1, the neural crest migration result in the assay on neural crest cells (noggin alone, no compound) is on record as “blocks the neural crest migration”.
